Reference: patent US20070042962A1, “Peptide dependent upregulation of telomerase expression” (priority 2002, published 2007)
Ends that are not written are not given here.

What was measured:
[1] = tested on: telomerase; experiment: TRAP telomerase assay in mouse neuroblastoma cells (NB2a/DL); assay type: cell-based; conditions: CMX-1 100 μg/ml or CMX-3 70 μg/ml, 6 and 24 hours
Protocol: Telomerase activity was assayed in human cells and tumors by telomeric repeat amplification protocol (TRAP) (see, Piatsyzek, Methods in Cell Science, 17:1 (1995)). Whole cell lysates were prepared from approximately 10^6 Nb2a cells. Cells were washed once with PBS, repelleted, and 20 μl of lysate buffer (10 mM Tris-HCl pH 7.5, 1 mM MgCl2, 1 mM EGTA, 0.1 mM benzamidine, 5 mM β-mercaptoethanol, 0.5% CHAPS, 10% glycerol) was added directly to the washed pellets. The suspensions were incubated on ice for 30 minutes to allow cell swelling and lysis. Lysates were cleared by centrifugation at 12,000×g for 20 minutes at 4° C. Total protein concentration was determined for the cleared supernatant using a Coomassie Reagent protocol (Pierce). Supernatants were stored at −70° C.
Telomerase activity was measured in total cellular lysates using a telomeric repeat amplification protocol (TRAP). […]
Telomerase-induced hexamer extensions to the TS primer were performed in a 50 μl reaction volume containing 20 mM Tris-HCl (pH 8.3), 1.5 mM MgCl2, 63 mM KCl, 0.05% Tween-20, 1 mM EGTA, 50 μM dNTPs, 0.1 pmol ^32P-labeled TS primer, 1 pmol reverse primer RP (CTAACCCTAACCCTAACC) (SEQ ID NO:31), 1.0 μg cell lysate, and 2 U Taq polymerase (Ambion). […] Ladders were quantitated by excision from the gel, and counting in a Bench Count (Beckman). […]

[2] = tested on: telomerase; experiment: TRAP telomerase assay in primary cortical rat brain cell cultures; assay type: cell-based; conditions: for upregulation of expression of telomerase (TRAP): primary rat brain cortical cultures, 1-70 μg/ml
Protocol: (§1) Telomerase activity was measured in total cellular lysates using a telomeric repeat amplification protocol (TRAP). DNA oligomer “TS” 18-mer (AATCCGTCGAGCAGAGTT) (SEQ ID NO:30) was end-labeled with P^32 in a 20 μl reaction containing 50 mM Tris-HCl (pH 7.5), 10 mM MgCl2, 0.1 mM EDTA, 1 mM DTT, 1 pmol TS primer, 1 pmol [γ-^32P]-ATP (4,500 Ci/mmol), and 5 U polynucleotide kinase (Ambion). The reaction was incubated for 20 minutes at 37° C., and then stopped by incubating for 5 minutes at 85° C. Labeled TS oligomer was stored at −20° C. until use.
(§2) Telomerase-induced hexamer extensions to the TS primer were performed in a 50 μl reaction volume containing 20 mM Tris-HCl (pH 8.3), 1.5 mM MgCl2, 63 mM KCl, 0.05% Tween-20, 1 mM EGTA, 50 μM dNTPs, 0.1 pmol ^32P-labeled TS primer, 1 pmol reverse primer RP (CTAACCCTAACCCTAACC) (SEQ ID NO:31), 1.0 μg cell lysate, and 2 U Taq polymerase (Ambion). The reaction was incubated for 30 minutes at 30° C. Hexamer extensions were then amplified by PCR using the following program: denaturation at 94° C. for 30 seconds, annealing at 59° C. for 30 seconds, 27 cycles denaturation/annealing. Radiolabeled ladders were separated by electrophoresis on 10% polyacrylamide gels, dried onto 3 MM paper, and visualized by autoradiography with Kodak X-Omat AR film. Exposure times averaged 4 hours at 25° C. Ladders were quantitated by excision from the gel, and counting in a Bench Count (Beckman).
The ability of representative peptide compounds described herein to upregulate telomerase was also tested in primary cortical cultures of rat brain using the TRAP telomerase assay described above.
[…] […] Negative control cultures were not exposed to a peptide compound during the growth period.
In this case, the P^32-labeled DNA precursors were incorporated into the series of hexamer base pairs showing the upregulation of the telomerase. The total radioactivity corresponding to base pairs ladders from 50 to 80 bp was measured by counting the particular region of the gel. […] The highest concentrations of peptide compound tested produced increasingly less upregulation of the enzyme, as is typically observed at some point along most dose response curves.

[3] = tested on: superoxide dismutase (SOD); conditions: rat brain cells; same nanogram amounts (1 ng/ml, 24 h); data not shown
Protocol: (§3) Primary cortical rat brain cell cultures were prepared as described above in Example 4 except that cells were cultured following a 24-hour exposure to 0 or 1 nanograms (ng)/ml of CMX-4. […] Positive control (“Pos”) represents the analysis of 1 μg of protein from a total cell lysate of immortalized HeLa cells.
(§4) In addition, the levels of antioxidative enzymes superoxide dismutase (SOD), catalase (CAT), and glutathione peroxidase (GPX) were determined using a standard immunoblotting protocol (see, Adams et al., J. Cell. Biochem., 77: 221-233 (2000)).

[4] = tested on: glutathione peroxidase (GPX); conditions: rat brain cells; same nanogram amounts (1 ng/ml, 24 h); data not shown
Protocol: as §3, §4

[5] = tested on: catalase (CAT); experiment: Immunoblotting of catalase in primary cortical rat brain cell cultures; assay type: cell-based; conditions: same nanogram amounts (1 ng/ml, 24 h), data not shown
[6] = tested on: telomerase; experiment: TRAP telomerase assay of tissue homogenates from old mice orally treated for 30 days; assay type: in vivo, mouse
Protocol: as §1, §2
The ability of peptide compounds described herein to upregulate telomerase in old and young mice was also studied. Here, the old mice (17 months old) were treated daily by gavage for 30 days with an oral dose of peptide CMX-2 in saline at doses of 0, 0.03, 0.3, and 3.3 mg of peptide compound per kilogram (kg) of body weight. Control animals received saline only without peptide compound. Animals were sacrificed by decapitation after 30 days and dissected to isolate the brain, heart, and liver, which was frozen at −70° C. for subsequent analysis. […]
Telomerase activity was then measured in the cytoplasmic protein fraction of tissue homogenates.

**Q.** Which results are given for Asp Gly [CMX-3]?
**A.** upregulation of telomerase over control levels (TRAP) [1]: upregulated; upregulation of expression of telomerase (TRAP) [2]: upregulated; upregulation of telomerase over control at dose of maximum effect ([2]; primary rat cortical cultures, 1 μg/ml (maximum effect)): 2 fold

**Q.** For DGDGDFAIDAPE [CMX-1], which “upregulation of telomerase over control levels (TRAP)” value [1] is on record?
**A.** The value was “upregulated”.

**Q.** And the “upregulation of expression of telomerase (TRAP)” value [2]?
**A.** The value was “upregulated”.

**Q.** And the “increase in the level of telomerase expression relative to control levels” value ([2]; primary rat cortical cultures, 10 μg/ml)?
**A.** Its value is “greater than 4 fold”.

**Q.** What about the “shape of dose-response curve of telomerase upregulation” value ([2]; primary rat cortical cultures, 1, 10, 70 μg/ml) of the same substance?
**A.** Its value is “inverted U-shape”.

**Q.** With “R1 Asp Gly, wherein R1 is the iodine-substituted thyronine amino terminal capping group, 3,5,3′-triiodothyronine [CMX-4]” as the substance, how does the “upregulation of telomerase (TRAP)” value ([2]; primary cortical rat brain cells, 1 ng/ml, 24-hour exposure) read?
**A.** Its value is “effective at upregulating telomerase”.

**Q.** And the “upregulation of superoxide dismutase (SOD) compared to untreated control cells” value [3]?
**A.** The value was “upregulated”.

**Q.** What about the “upregulation of glutathione peroxidase (GPX) compared to untreated control cells” value [4] of the same substance?
**A.** The value was “upregulated”.

**Q.** And the “upregulation of catalase (CAT) compared to untreated control cells” value [5]?
**A.** The value was “upregulated”.

**Q.** What does the source list for “[Ac] Asp Gly Glu Ala (Ac-DGEA; listed as Homo sapiens) [CMX-2]”?
**A.** telomerase activity of brain tissue homogenates relative to untreated controls ([6]; 3.3 mg/kg body weight orally by gavage daily for 30 days, brain): 3.2 fold; upregulation of telomerase in brain tissue ([6]; oral daily for 30 days, brain): upregulated; upregulation of telomerase in heart tissue ([6]; oral daily for 30 days, heart): upregulated
